Common to all, as to type: biochemical
The subject of one test is WT KRAS-BRAF complex. As to the kind of experiment: WT KRAS-BRAF with CYPA interaction assay (TR-FRET). The procedure:
(§1) In this example, TR-FRET was used to measure the compound or compound-CYPA dependent disruption of the KRAS G12V-BRAF complex to assess inhibition efficacy. The IC50 ratio between WT KRAS/HRAS/NRAS and KRAS G12V mutant was calculated as selective index, which indicated tolerability and safety profile. Disruption of WT KRAS/HRAS/NRAS-BRAF complex by compounds was detected respectively. In assay buffer containing 25 mM HEPES (PH-7.4,4-(2-hydroxyethyl)-1-piperazineethanesulfonic acid, Thermo, 15630080), 0.002% Tween20, 0.1% BSA, 100 mM NaCl, 5 mM MgCl2, 10 μM GMPPNP (Guanosine 5′-[β,γ-imido]triphosphate trisodium salt hydrate, Sigma, G0635), tagless CYPA and GMPPNP loaded 6His-RAS proteins, and GST-BRAF^RBD were mixed in a well of a 384-well assay plate at final concentrations of 50 nM, 6.25 nM and 1 nM, respectively. Compound was present in plate wells as a 16-point 3-fold dilution series starting at a final concentration of 10 μM and incubated for 3 hours. A mixture of MAb Anti-6His-XL665 (Cisbio, 61HISXLB) and Mab anti-GST-TB cryptate (Cisbio, 61GSTTLB) was then added at a final concentration of 6.67 nM and 0.21 nM, respectively, and the plate was incubated for an additional 1.5 hours. TR-FRET signal was read on a PHERstar FSX microplate reader (Ex320 nm, Em 665/615 nm). Compounds that facilitate disruption of the RAS-BRAF complex were identified as those eliciting a decrease in the TR-FRET ratio relative to DMSO control wells.
(In general: Time-resolved FRET reads energy transfer from a long-lived donor to a nearby acceptor.)

The next test deals with WT HRAS-BRAF complex. As to the kind of experiment: WT HRAS-BRAF with CYPA interaction assay (TR-FRET). The protocol: as §1
The test system of another test is WT NRAS-BRAF complex. As to the kind of experiment: WT NRAS-BRAF with CYPA interaction assay (TR-FRET). The procedure: as §1
The target in a further test is KRAS G12C-BRAF complex (Homo sapiens (Human), UniProt P01116+P62937, G12C). The test is described as follows: KRAS-BRAF with CYPA (500 nM) interaction assay (TR-FRET, Example 136). To be noted: KRAS G12C-BRAF disruption.
Sequence of KRAS G12C-BRAF complex (P01116-2 other isoform, or with tags, fused parts or gaps G12C): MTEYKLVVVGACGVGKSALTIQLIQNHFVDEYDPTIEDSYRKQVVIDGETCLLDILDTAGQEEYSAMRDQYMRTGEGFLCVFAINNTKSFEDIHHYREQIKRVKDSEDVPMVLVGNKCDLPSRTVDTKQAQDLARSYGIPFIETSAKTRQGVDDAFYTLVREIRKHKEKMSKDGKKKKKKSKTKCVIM
Sequence of KRAS G12C-BRAF complex (P62937 whole entry): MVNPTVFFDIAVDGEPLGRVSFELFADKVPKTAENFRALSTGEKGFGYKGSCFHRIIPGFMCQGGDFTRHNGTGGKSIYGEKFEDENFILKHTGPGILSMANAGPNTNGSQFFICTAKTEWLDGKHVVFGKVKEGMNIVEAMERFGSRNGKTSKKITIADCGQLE

Broadly, the IC50 is the concentration that gives 50% inhibition. For the molecule `CO[C@@H](C)c1ncc(N2CCN(C)CC2)cc1-c1c2c3cc(cc4c3n1CCC4)-c1csc(n1)C[C@H](NC(=O)[C@H]1[C@H](C)[C@@H]1C)C(=O)N1CCC[C@H](N1)C(=O)OCC(C)(C)C2` (atropisomer, axis not shown; (M)) [Example 24, (1r,2R,3S)-N-[(7S,13S)-(20M)-20-[2-[(1S)-1-methoxyethyl]-5-(4-methylpiperazin-1-yl)-3-pyridyl]-17,17-dimethyl-8,14-dioxo-15-oxa-4-thia-9,21,30,31-tetrazahexacyclo[23.3.1.1^2,5.1^9,13.0^19,27.0^21,26]hentriaconta-1 (28),2,5 (31), 19,25 (29),26-hexaen-7-yl]-2,3-dimethyl-cyclopropanecarboxamide], in the test with WT KRAS-BRAF complex, the “Selectivity Index (IC50 ratio) WT KRAS/KRAS G12V” value stood at 4.6. Besides, in the test on WT HRAS-BRAF complex, the “Selectivity Index (IC50 ratio) WT HRAS/KRAS G12V” value turned out to be 5.4. In the test with WT NRAS-BRAF complex, the “Selectivity Index (IC50 ratio) WT NRAS/KRAS G12V” value was 5.0. This molecule showed an IC50 against KRAS G12C-BRAF complex of 9.7 nM.

The record behind these values is patent US20240417410A1, “TRICYCLIC COMPOUNDS FOR THE TREATMENT OF CANCER” (Hoffmann-La Roche Inc., priority 2023, published 2024).
